Experimental findings from patent publication US20100151039A1, “SKIN MOISTURIZING AGENT FOR ORAL INTAKE AND FUNCTIONAL FOODS AND DRINKS” (CALPIS CO., LTD., priority 2003, published 2010) are described below.

Assay [1] deals with serine palmitoyl transferase (SPT) mRNA. Description: Ability to promote synthesis of SPT: RT-PCR of SPT mRNA in normal human epidermic cells. The following applies: 0.63 v/v % in medium, 24 hours; relative value, control = 100, standardized to cyclophilin mRNA.
Description: (§1) A 35 mm culture dish was seeded with the epidermic cells at a cell concentration of 5×10^5 cells per dish, and subjected to culture for 24 hours.
(§2) (2) After the culture, the cells were washed with PBS (−), and lysed with 500 μl, per dish of TRIzol reagent (trade name, manufactured by Gibco BRL). 100 μL per dish of chloroform was added and mixed thoroughly. The supernatant aqueous phase was recovered by centrifugation, and RNAs were precipitated with 2-propanol to obtain the total RNAs. The obtained total RNAs were washed with 75% cold ethanol, and dissolved in diethyl pyrocarbonate (DEPC)-treated water.
(§3) (3) 1 μg of the RNAs dissolved in DEPC-treated water was subjected to RT-PCR using One step RT-PCR kit (trade name, manufactured by Qiagen) in accordance with its protocol under the conditions and with the primers shown in Table 2, to reverse transcript and amplify the cDNA corresponding to serine palmitoyl transferase (SPT) mRNA, filaggrin mRNA, or cyclophilin RNA.
(§4) (4) After the reaction, the reaction product was fractionated by 1% agarose gel electrophoresis. The electrophoresis gel was stained with ethidium bromide, and photographed under UV irradiation on a transilluminator, to determine the band intensity.
The test was conducted twice.
The subject of another assay is filaggrin mRNA. Description: Ability to promote synthesis of filaggrin: RT-PCR of filaggrin mRNA in normal human epidermic cells. As to conditions: 0.63 v/v % in medium, 24 hours; relative value, control = 100, standardized to cyclophilin mRNA.

Description for filaggrin mRNA: as §1, §2, §3, §4
The test was conducted twice.

Regarding `CC(O)C(=O)O` (stereo not shown) [lactic acid], in assay [1], the “Effect on expression of SPT mRNA of normal human epidermic cells, 1st Test” value is recorded as 91 and the “Effect on expression of SPT mRNA of normal human epidermic cells, 2nd Test” value turned out to be 111. In addition, in the assay with filaggrin mRNA, the “Effect on expression of filaggrin mRNA of normal epidermic cells, 1st Test” value is 15 and the “Effect on expression of filaggrin mRNA of normal epidermic cells, 2nd Test” value is reported as 132.
